The subject of data set [1] is Plutella xylostella. In words: Plutella xylostella (diamond back moth), 24-well artificial diet, eggs. The following applies: 192 h, application rate 200 ppm, 8 days after infestation, 24-well plates, read-out: control in at least one of the categories (mortality or growth inhibition). In kind it is in vivo. Here is the method:
24-well microtiter plates with artificial diet were treated with aqueous test solutions prepared from 10′000 ppm DMSO stock solutions by pipetting. After drying, Plutella eggs were pipetted through a plastic stencil onto a gel blotting paper and the plate was closed with it. The samples were assessed for mortality and growth inhibition in comparison to untreated samples 8 days after infestation. The following compounds gave an effect of at least 80% control in at least one of the categories (mortality or growth inhibition) at an application rate of 200 ppm: P1, P2, P3, P7, P10.

The subject of a further data set is Diabrotica balteata. In words: Diabrotica balteata (corn root worm), maize sprouts sprayed, L2 larvae. In kind it is in vivo. The following applies: 96 h, application rate 200 ppm, 4 days after infestation, read-out: control in at least one of the categories (mortality or growth inhibition). Here is the method:
Maize sprouts placed onto an agar layer in 24-well microtiter plates were treated with aqueous test solutions prepared from 10′000 ppm DMSO stock solutions by spraying. After drying, the plates were infested with L2 larvae (6 to 10 per well). The samples were assessed for mortality and growth inhibition in comparison to untreated samples 4 days after infestation. The following compounds gave an effect of at least 80% control in at least one of the categories (mortality or growth inhibition) at an application rate of 200 ppm: P1, P2, P3, P6, P7, P8, P10.

For another data set, the system named is Spodoptera littoralis. In words: Spodoptera littoralis (Egyptian cotton leaf worm), cotton leaf discs sprayed, L1 larvae. In kind it is in vivo. The following applies: foliar, 72 h, application rate 200 ppm, 3 days after infestation, read-out: control in at least one of the categories (mortality, anti-feedant effect or growth inhibition). How it is done:
Cotton leaf discs were placed onto agar in 24-well microtiter plates and sprayed with aqueous test solutions prepared from 10′000 ppm DMSO stock solutions. After drying the leaf discs were infested with five L1 larvae. The samples were assessed for mortality, anti-feeding effect, and growth inhibition in comparison to untreated samples 3 days after infestation. Control of Spodoptera littoralis by a test sample is given when at least one of the categories mortality, anti-feedant effect, and growth inhibition is higher than the untreated sample.

In the next data set the test system is Chilo suppressalis. Nature of the data set: Chilo suppressalis (striped rice stemborer), artificial diet, L2 larvae. In kind it is in vivo. The following applies: 144 h, application rate 200 ppm, 6 days after infestation, read-out: control in at least one of the categories (mortality, anti-feedant effect or growth inhibition). Here is the method:
24-well microtiter plates with artificial diet were treated with aqueous test solutions prepared from 10′000 ppm DMSO stock solutions by pipetting. After drying, the plates were infested with L2 larvae (6-8 per well). The samples were assessed for mortality, anti-feeding effect, and growth inhibition in comparison to untreated samples 6 days after infestation. Control of Chilo suppressalis by a test sample is given when at least one of the categories mortality, anti-feedant effect, and growth inhibition is higher than the untreated sample.

Data set [2] has as its system Plutella xylostella. In words: Plutella xylostella (diamondback moth), 96-well artificial diet, eggs. The following applies: 216 h, application rate 500 ppm, 9 days after infestation, 96-well plates, read-out: control (mortality). The data set is classed as in vivo. How it is done: 96-well microtiter plates containing artificial diet were treated with aqueous test solutions, prepared from 10′000 ppm DMSO stock solutions, by a liquid handling robot. After drying, eggs (˜30 per well) were infested onto a netted lid which was suspended above the diet. The eggs hatch and L1 larvae move down to the diet. The samples were assessed for mortality 9 days after infestation.

The next data set relates to Myzus persicae. Nature of the data set: Myzus persicae (green peach aphid): feeding/contact activity, sunflower leaf discs. The data set is classed as in vivo. The following applies: foliar, 144 h, application rate 200 ppm, 6 days after infestation, mixed ages. Here is the method:
Sunflower leaf discs were placed onto agar in a 24-well microtiter plate and sprayed with aqueous test solutions prepared from 10′000 ppm DMSO stock solutions. After drying, the leaf discs were infested with an aphid population of mixed ages. The samples were assessed for mortality 6 days after infestation.

Some results are limits rather than exact numbers.

The melting point is the temperature of the solid-liquid transition. One may read the mortality as the percentage killed.

As to `CC(Nc1snc2c(C(F)(F)F)cc(C(F)(F)F)cc12)c1ncnn1-c1ncccn1` (centres unmarked) [P1, N-[1-(2-pyrimidin-2-yl-1,2,4-triazol-3-yl)ethyl]-5,7-bis(trifluoromethyl)-2,1-benzothiazol-3-amine], the percent control (mortality or growth inhibition) at 200 ppm in the data set with Plutella xylostella [1] and with Diabrotica balteata was not below 80% each time. Moreover, in the data set on Spodoptera littoralis, the percent control (mortality, anti-feedant effect or growth inhibition) at 200 ppm was not below 80%.

Turning to `C[C@H](Nc1snc2c(C(F)(F)F)cc(C(F)(F)F)cc12)c1ncnn1-c1ccc(C#N)cn1` [P2, 6-[5-[(1S)-1-[[5,7-bis(trifluoromethyl)-2,1-benzothiazol-3-yl]amino]ethyl]-1,2,4-triazol-1-yl]pyridine-3-carbonitrile], the percent control (mortality or growth inhibition) at 200 ppm in the data set on Plutella xylostella [1] and with Diabrotica balteata was not below 80% each time. The percent control (mortality, anti-feedant effect or growth inhibition) at 200 ppm with Spodoptera littoralis is not below 80%.

Turning to `CC(c1ncnn1-c1ccc(C#N)cn1)N(C)c1c(C#N)sc2c(C(F)(F)F)cc(C(F)(F)F)cc12` (centres unmarked) [P3, 6-[5-[1-[[2-cyano-5,7-bis(trifluoromethyl)benzothiophen-3-yl]-methyl-amino]ethyl]-1,2,4-triazol-1-yl]pyridine-3-carbonitrile], the percent control (mortality or growth inhibition) at 200 ppm in the data set on Plutella xylostella [1] and with Diabrotica balteata was not below 80% in each case. Further, the percent control (mortality, anti-feedant effect or growth inhibition) at 200 ppm with Chilo suppressalis was not below 80%.

Regarding `CC(Nc1c(C#N)sc2c(C(F)(F)F)cc(C(F)(F)F)cc12)c1ncnn1-c1ccc(C#N)cn1` (centres unmarked) [P4, 6-[5-[1-[[2-cyano-5,7-bis(trifluoromethyl)benzothiophen-3-yl]amino]ethyl]-1,2,4-triazol-1-yl]pyridine-3-carbonitrile], the melting point was in the range of 192 to 194 °C.

As to `COC(=O)c1sc2c(C(F)(F)F)cc(C(F)(F)F)cc2c1NC(C)c1ncnn1-c1ccc(C#N)cn1` (centres unmarked) [P5, methyl 3-[1-[2-(5-cyano-2-pyridyl)-1,2,4-triazol-3-yl]ethylamino]-5,7-bis(trifluoromethyl)benzothiophene-2-carboxylate], the melting point lay within 195 to 197 °C.

Regarding `CC(Nc1nn(C)c2c(C(F)(F)F)cc(C(F)(F)F)cc12)c1ncnn1-c1ncccn1` (centres unmarked) [P6, 1-methyl-N-[1-(2-pyrimidin-2-yl-1,2,4-triazol-3-yl)ethyl]-5,7-bis(trifluoromethyl)indazol-3-amine], the percent control (mortality or growth inhibition) at 200 ppm in the data set with Diabrotica balteata is not below 80%. In addition, the percent control (mortality, anti-feedant effect or growth inhibition) at 200 ppm in the data set on Spodoptera littoralis and in the data set on Chilo suppressalis was not below 80% each time.

In the case of `CC(c1nccnc1-c1ncccn1)N(CC1CC1)c1nn(C)c2c(C(F)(F)F)cc(C(F)(F)F)cc12` (centres unmarked) [P7, N-(cyclopropylmethyl)-1-methyl-N-[1-(3-pyrimidin-2-ylpyrazin-2-yl)ethyl]-5,7-bis(trifluoromethyl)indazol-3-amine], the percent control (mortality or growth inhibition) at 200 ppm in the data set with Plutella xylostella [1] and with Diabrotica balteata was not below 80% in each case. Besides, the percent control (mortality, anti-feedant effect or growth inhibition) at 200 ppm in the data set on Spodoptera littoralis and with Chilo suppressalis was not below 80% throughout.

Consider `CC(c1nccnc1-c1ncccn1)N(CC1CC1)c1nn(C)c2c(Cl)cc(C(F)(F)F)cc12` (centres unmarked) [P8, 7-chloro-N-(cyclopropylmethyl)-1-methyl-N-[1-(3-pyrimidin-2-ylpyrazin-2-yl)ethyl]-5-(trifluoromethyl)indazol-3-amine], for which the mortality at 500 ppm in the data set with Plutella xylostella [2] is not below 80%. In addition, the percent control (mortality or growth inhibition) at 200 ppm in the data set with Diabrotica balteata is not below 80%. Moreover, the percent control (mortality, anti-feedant effect or growth inhibition) at 200 ppm with Spodoptera littoralis was not below 80%.

For `CC(Nc1noc2c(Cl)cc(C(F)(F)F)cc12)c1nc(Br)nn1-c1ncccn1` (centres unmarked) [P9, N-[1-(5-bromo-2-pyrimidin-2-yl-1,2,4-triazol-3-yl)ethyl]-7-chloro-5-(trifluoromethyl)-1,2-benzoxazol-3-amine], the melting point was 160 to 163 °C.

As for `CC(Nc1nn(C)c2c(C(F)(F)F)cc(C(F)(F)F)cc12)c1nc(Br)nn1-c1ncccn1` (centres unmarked) [P10, N-[1-(5-bromo-2-pyrimidin-2-yl-1,2,4-triazol-3-yl)ethyl]-1-methyl-5,7-bis(trifluoromethyl)indazol-3-amine], the percent control (mortality or growth inhibition) at 200 ppm with Plutella xylostella [1] and in the data set with Diabrotica balteata was not below 80% each time. For the same compound, the mortality at 500 ppm with Plutella xylostella [2] was not below 80%. Moreover, the percent control (mortality, anti-feedant effect or growth inhibition) at 200 ppm in the data set with Chilo suppressalis is not below 80%.

As to `CC(Nc1nn(C)c2c(Cl)cc(C(F)(F)F)cc12)c1nc(Br)nn1-c1ncccn1` (centres unmarked) [P11, N-[1-(5-bromo-2-pyrimidin-2-yl-1,2,4-triazol-3-yl)ethyl]-7-chloro-1-methyl-5-(trifluoromethyl)indazol-3-amine], the melting point was in the range of 262 to 264 °C.

Take `CC(Nc1noc2c(F)cc(F)cc12)c1nccnc1-n1ccnn1` (centres unmarked) [P12, 5,7-difluoro-N-[1-[3-(triazol-1-yl)pyrazin-2-yl]ethyl]-1,2-benzoxazol-3-amine]: the mortality at 200 ppm with Myzus persicae is not below 80%.

In the case of `CC(Nc1noc2c(F)cc(F)cc12)c1nccnc1-n1nccn1` (centres unmarked) [P13, 5,7-difluoro-N-[1-[3-(triazol-2-yl)pyrazin-2-yl]ethyl]-1,2-benzoxazol-3-amine], the melting point is 199 to 201 °C.

Take `CC(Nc1noc2ccc(Br)cc12)c1ncnn1-c1ccc(C#N)cn1` (centres unmarked) [P16, 6-[5-[1-[(5-bromo-1,2-benzoxazol-3-yl)amino]ethyl]-1,2,4-triazol-1-yl]pyridine-3-carbonitrile]: the melting point lay within 175 to 177 °C.

Compound `CC(Nc1noc2ccc(Br)cc12)c1ncnn1-c1ncccn1` (centres unmarked) [P17, 5-bromo-N-[1-(2-pyrimidin-2-yl-1,2,4-triazol-3-yl)ethyl]-1,2-benzoxazol-3-amine] displayed a melting point of 233 to 235 °C.

As to `COC(=O)c1cc(Cl)cc2c(N[C@@H](C)c3ncnn3-c3ccc(C#N)cn3)csc12` [P18, methyl 5-chloro-3-[[(1S)-1-[2-(5-cyano-2-pyridyl)-1,2,4-triazol-3-yl]ethyl]amino]benzothiophene-7-carboxylate], the mortality at 500 ppm with Plutella xylostella [2] is not below 80%.

Source of the values: patent publication US20230053607A1, “PESTICIDALLY ACTIVE FUSED BICYCLIC HETEROAROMATIC AMINO COMPOUNDS” (SYNGENTA CROP PROTECTION AG, priority 2019, published 2023).
